{
  "source": "patent US9504699B2",
  "about": "“Delayed-release glucocorticoid treatment of rheumatoid disease” (Horizon Pharma AG, priority 2006, dated 2016)",
  "format_in_all_cases": "in vivo, human",
  "key": {"adult RA patients [1]": {"test_system": "adult RA patients", "assay": "Phase III study, double-blind phase: adverse events"}, "adult RA patients [2]": {"test_system": "adult RA patients", "assay": "9-month open follow-up on Prednisone delayed-release: duration of morning stiffness", "settings": "prednisone = all subjects", "from_the_text": "Although efficacy was not the main objective of this open follow-up study, the order of reporting was kept the same as in the previous study report on the double-blind phase. […] Mean Daily Duration of Morning Stiffness\nThe mean daily duration of morning stiffness at start of the double-blind period (Visit 2), at start of the open follow-up period (Visit 5) and at end of study (Visit 8) as well as the relative changes are presented in Table 10 and FIG. 2 for the study population.\nTaking advantage of the higher number of available data, the interpretation of the results was carried out for the total numbers."}, "CRP": {"test_system": "CRP", "assay": "9-month open follow-up: CRP", "settings": "after 12 weeks double-blind, by group; prednisone = Total", "from_the_text": "The median values of the inflammatory signs CRP and IL-6 during the open follow-up period (Visit 5 to Visit 8) and the respective absolute changes are presented in Table 12 and FIG. 3."}, "[3]": {"settings": "12-week double-blind phase, prednisone = Total"}, "[4]": {"settings": "after 12 weeks double-blind, by group"}, "[5]": {"settings": "subjects of open follow-up, by double-blind group"}},
  "data": [
    {"compound": "C[C@]12C=CC(=O)C=C1CC[C@@H]1[C@@H]2C(=O)C[C@@]2(C)[C@H]1CC[C@]2(O)C(=O)CO", "note": "[prednisone]", "values": [
      {"measurement": "All AEs (at least one treatment-emergent AE)", "setting": "adult RA patients [1]; 12-week double-blind phase, label prednisone = Total of both groups (N = 288)", "value": "118 (41.0) No. (%) subjects"},
      {"measurement": "AE: Abdominal pain (Upper)", "setting": "adult RA patients [1]; [3]", "value": "13 (4.5) No. (%) subjects"},
      {"measurement": "AE: Flushing", "setting": "adult RA patients [1]; [3]", "value": "10 (3.5) No. (%) subjects"},
      {"measurement": "AE: Headache", "setting": "adult RA patients [1]; [3]", "value": "10 (3.5) No. (%) subjects"},
      {"measurement": "AE: Nasopharyngitis (values printed on the line headed 'Upper')", "setting": "adult RA patients [1]; [3]", "value": "12 (4.2) No. (%) subjects"},
      {"measurement": "AE: Nausea", "setting": "adult RA patients [1]; [3]", "value": "9 (3.1) No. (%) subjects"},
      {"measurement": "AE: Rheumatoid arthritis", "setting": "adult RA patients [1]; [3]", "value": "24 (8.3) No. (%) subjects"},
      {"measurement": "Drug-related AE: Abdominal pain (Upper)", "setting": "adult RA patients [1]; [3]", "value": "7 (2.4) No. (%) subjects"},
      {"measurement": "Drug-related AE: Headache", "setting": "adult RA patients [1]; [3]", "value": "6 (2.1) No. (%) subjects"},
      {"measurement": "Drug-related AE: Nausea (values printed on the line headed 'Upper')", "setting": "adult RA patients [1]; [3]", "value": "6 (2.1) No. (%) subjects"},
      {"measurement": "Drug-related AE: Rheumatoid arthritis", "setting": "adult RA patients [1]; [3]", "value": "5 (1.7) No. (%) subjects"},
      {"measurement": "SAEs", "setting": "adult RA patients [1]; double-blind phase, both groups, 2.4%", "value": "Seven"},
      {"measurement": "AEs causing discontinuation of prednisone", "setting": "adult RA patients [1]; double-blind phase, both groups, 7.6%", "value": 22, "unit": "subjects"},
      {"measurement": "SAE judged to be related to prednisone by the investigator", "setting": "adult RA patients [1]; of the 7 subjects with SAEs", "value": "one"},
      {"measurement": "Duration of morning stiffness, Visit 5 (Start of Follow-up Period), mean", "setting": "adult RA patients [2]; [4]", "value": 125.56, "unit": "min"},
      {"measurement": "Duration of morning stiffness, Visit 5 (Start of Follow-up Period), median", "setting": "adult RA patients [2]; [4]", "value": 83.93, "unit": "min"},
      {"measurement": "Duration of morning stiffness, Visit 2 (Start of Double-blind Period), mean", "setting": "adult RA patients [2]; [5]", "value": 169.80, "unit": "min"},
      {"measurement": "Duration of morning stiffness, Visit 2 (Start of Double-blind Period), median", "setting": "adult RA patients [2]; [5]", "value": 143.21, "unit": "min"},
      {"measurement": "CRP (median), Visit 5 (Start of Follow-up)", "setting": "CRP", "value": "9.40 (n = 249) mg/L"}
    ]}
  ]
}
